22 compounds from patent US20260274833A1 (NiKang Therapeutics, Inc., priority 2022, published 2026) can be followed below.

pIC50: −log10 of the molar value.

For the experiment, the target named is T1, CDK2 (Homo sapiens, UniProt P24941).
T1 construct: endogenous in cells; host or cells: OVCAR3 cells
Kind of experiment: Phospho-RB measurement in OVCAR3 cells (HTRF phospho-RB cellular kit). The note with it: inhibition of RB phosphorylation at S807/811 (HTRF, TR-FRET ratio 665/620), 24 h compound treatment, 0.3 to 10,000 nM. It counts as cell-based. The gist of the method: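 IC50 came from a four-parameter logistic fit of the DMSO-normalized TR-FRET ratio (665/620 nm). That ratio reflects RB phosphorylation at S807/811, read with an HTRF antibody pair 4 h after adding lysate at room temperature.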
(In general: TR-FRET usually uses a lanthanide donor and a delayed reading to cut background.)
The pIC50 is the negative decadic logarithm of the IC50, by convention in mol/L. In the case of `CC(C)(C)c1nc(-c2cccc(NS(=O)(=O)N3Cc4ccncc4C3)c2F)c(-c2ccnc(N[C@H]3[C@@H]4CS(=O)(=O)C[C@@H]43)n2)s1` [Example 222, N-(3-(2-(tert-butyl)-5-(2-(((1R,5S,6r)-3,3-dioxido-3-thiabicyclo[3.1.0]hexan-6-yl)amino)pyrimidin-4-yl)thiazol-4-yl)-2-fluorophenyl)-1,3-dihydro-2H-pyrrolo[3,4-c]-pyridine-2-sulfonamide], the negative logarithm of the IC50 (pIC50) was 6.82.

Take `CC(C)(C)c1nc(-c2cccc(NS(=O)(=O)N3CCNc4ccccc4C3)c2F)c(-c2ccnc(NC3CCN(S(=O)(=O)N4CCNCC4)CC3)n2)s1` [Example 116, N-(3-(2-(tert-butyl)-S-(2-((1-(piperazin-1-ylsulfonyl)piperidin-4-yl)amino)-pyrimidin-4-yl)thiazol-4-yl)-2-fluorophenyl)-1,2,3,5-tetrahydro-4H-benzo[e][1,4] diazepine-4-sulfonamide]: the pIC50 was 6.41.

For the compound `CC1(c2nc(-c3cccc(NS(=O)(=O)N4Cc5cccc(C(F)(F)F)c5C4)c3F)c(-c3ccnc(NC4CC5(C4)CS(=O)(=O)C5)n3)s2)CCOCC1` [Example 3, N-(3-(5-(2-((2,2-dioxido-2-thiaspiro-[3.3]-heptan-6-yl)amino)pyrimidin-4-yl)-2-(4-methyltetrahydro-2H-pyran-4-yl)thiazol-4-yl)-2-fluorophenyl)-4-(trifluoromethyl) isoindoline-2-sulfonamide], the pIC50 was 7.31.

As for `CC(C)(c1nc(-c2cccc(NS(=O)(=O)N3CCc4ccccc43)c2F)c(-c2ccnc(N[C@H]3CC[C@H](S(C)(=O)=O)CC3)n2)s1)C(F)(F)F` [Example 288, N-(2-fluoro-3-(5-(2-(((1r,4r)-4-(methylsulfonyl)cyclohexyl)amino)-pyrimidin-4-yl)-2-(1,1,1-trifluoro-2-methylpropan-2-yl)thiazol-4-yl)phenyl)-indoline-1-sulfonamide], the pIC50 is 6.91.

For the compound `CC(C)(C)c1nc(-c2cccc(NS(=O)(=O)N3CCc4ccc(C(C)(C)C#N)cc43)c2F)c(-c2ccnc(NC3CC4(C3)CS(=O)(=O)C4)n2)s1` [Example 260, N-(3-(2-(tert-butyl)-S-(2-((2,2-dioxido-2-thiaspiro[3.3]heptan-6-yl)amino)-pyrimidin-4-yl)thiazol-4-yl)-2-fluoro-phenyl)-6-(2-cyanopropan-2-yl)indoline-1-sulfonamide], the negative-log IC50 (pIC50) is 6.18.

For `C[C@H]1Cc2ccccc2N1S(=O)(=O)Nc1cccc(-c2nc(C(C)(C)C)sc2-c2ccnc(NC3CCN(S(=O)(=O)N4CCNCC4)CC3)n2)c1F` [Example 147, (S)-N-(3-(2-(tert-butyl)-5-(2-((1-(piperazin-1-ylsulfonyl)piperidin-4-yl)amino)pyrimidin-4-yl)thiazol-4-yl)-2-fluorophenyl)-2-methylindoline-1-sulfonamide], the negative logarithm of the IC50 (pIC50) was 6.34.

On to `CC(C)(C)c1nc(-c2cccc(NS(=O)(=O)N3CCC4(CCC4)C3)c2F)c(-c2ccnc(NC3CCN(S(=O)(=O)N4CCNCC4)CC3)n2)s1` [Example 177, N-(3-(2-(tert-butyl)-S-(2-((1-(piperazin-1-ylsulfonyl)piperidin-4-yl)amino)-pyrimidin-4-yl)thiazol-4-yl)-2-fluoro-phenyl)-6-azaspiro[3.4] octane-6-sulfonamide], for which the pIC50 is 5.99.

Turning to `CS(=O)(=O)[C@H]1CC[C@H](Nc2nccc(-c3sc(C45CC(F)(C4)C5)nc3-c3cccc(NS(=O)(=O)N4CCc5ccc(C(F)(F)F)cc54)c3F)n2)CC1` [Example 276, N-(2-fluoro-3-(2-(3-fluorobicyclo-[1.1.1]pentan-1-yl)-5-(2-(((1s,4s)-4-(methylsulfonyl)-cyclohexyl)amino)-pyrimidin-4-yl)thiazol-4-yl)phenyl)-6-(trifluoromethyl) indoline-1-sulfonamide], the pIC50 is 6.72.

Consider `CC(C)(C)c1nc(-c2cccc(NS(=O)(=O)N3CCC4(CC4)C3)c2F)c(-c2ccnc(NC3CC4(C3)CN(S(C)(=O)=O)C4)n2)s1` [Example 199, N-(3-(2-(tert-butyl)-5-(2-((2-(methylsulfonyl)-2-azaspiro [3.3]heptan-6-yl)amino)pyrimidin-4-yl)thiazol-4-yl)-2-fluorophenyl)-5-azaspiro [2.4]heptane-5-sulfonamide], for which the pIC50 is below 5.42.

With `COc1ccc2c(c1)CN(S(=O)(=O)Nc1cccc(-c3nc(C(C)(C)C)sc3-c3ccnc(NC4CCN(S(C)(=O)=O)CC4)n3)c1F)C2` [Example 72, N-(3-(2-(tert-butyl)-5-(2-((1-(methylsulfonyl)-piperidin-4-yl)amino)-pyrimidin-4-yl)thiazol-4-yl)-2-fluoro-phenyl)-5-methoxyisoindoline-2-sulfonamide], the pIC50 was 6.73.

In the case of `Cn1cc2c(n1)CN(S(=O)(=O)Nc1cccc(-c3nc(C(C)(C)C)sc3-c3ccnc(NC4CCN(S(C)(=O)=O)CC4)n3)c1F)C2` [Example 86, N-(3-(2-(tert-butyl)-5-(2-((1-(methylsulfonyl)-piperidin-4-yl)amino)-pyrimidin-4-yl)thiazol-4-yl)-2-fluoro-phenyl)-2-methyl-2,6-dihydro-pyrrolo[3,4-c]pyrazole-5(4H)-sulfonamide], the pIC50 was 6.32.

Consider `O=S1(=O)CC2(CC(Nc3nccc(-c4sc(C56CC(C5)C6)nc4-c4cccc(NS(=O)(=O)N5CCc6ccncc65)c4F)n3)C2)C1` [Example 264, N-(3-(2-(bicyclo [1.1.1]pentan-1-yl)-5-(2-((2,2-dioxido-2-thiaspiro[3.3]heptan-6-yl)amino)-pyrimidin-4-yl)thiazol-4-yl)-2-fluorophenyl)-2,3-dihydro-1H-pyrrolo[2,3-c]pyridine-1-sulfonamide], for which the pIC50 was 5.74.

Take `CS(=O)(=O)[C@H]1CC[C@H](Nc2nccc(-c3sc(N4C5CCC4CN(CC(F)(F)F)C5)nc3-c3cccc(NS(=O)(=O)N4CCc5ccc(C(F)(F)F)cc54)c3F)n2)CC1` [Example 296, N-(2-fluoro-3-(5-(2-(((1r,4r)-4-(methylsulfonyl)cyclohexyl)amino)-pyrimidin-4-yl)-2-(3-(2,2,2-trifluoroethyl)-3,8-diazabicyclo[3.2.1]-octan-8-yl)thiazol-4-yl)phenyl)-6-(trifluoromethyl) indoline-1-sulfonamide]: the pIC50 was 5.92.

Regarding `CC(C)(C)c1nc(-c2cccc(NS(=O)(=O)N3Cc4ccc(C#N)cc4C3)c2F)c(-c2ccnc(NC3CCN(S(C)(=O)=O)CC3)n2)s1` [Example 97, N-(3-(2-(tert-butyl)-5-(2-((1-(methylsulfonyl)piperidin-4-yl)amino)-pyrimidin-4-yl)thiazol-4-yl)-2-fluorophenyl)-5-cyanoisoindoline-2-sulfonamide], the pIC50 is 6.55.

In the case of `N=S1(=O)CC2(CC(Nc3nccc(-c4sc(C56CC(C5)C6)nc4-c4cccc(NS(=O)(=O)N5CCc6ccccc65)c4F)n3)C2)C1` (stereo not shown) [Example 271, N-(3-(2-(bicyclo [1.1.1]pentan-1-yl)-5-(2-((2-imino-2-oxido-26-thiaspiro[3.3]-heptan-6-yl)-amino)pyrimidin-4-yl)thiazol-4-yl)-2-fluorophenyl) indoline-1-sulfonamide], the negative logarithm of the IC50 (pIC50) was 5.09.

Take `Cn1cc2c(n1)CN(S(=O)(=O)Nc1cccc(-c3nc(C(C)(C)C)sc3-c3ccnc(Nc4ccc(N5CCNCC5)cc4)n3)c1F)C2` [Example 252, N-(3-(2-(tert-butyl)-5-(2-((4-(piperazin-1-yl)-phenyl)amino)pyrimidin-4-yl)-thiazol-4-yl)-2-fluorophenyl)-2-methyl-2,6-dihydropyrrolo-[3,4-c]pyrazole-5(4H)-sulfonamide]: the pIC50 is 5.48.

With `CC(C)(C)c1nc(-c2cccc(NS(=O)(=O)N3CCc4ccc(C#N)cc43)c2F)c(-c2ccnc(Nc3ccc(N4CCNCC4)cc3)n2)s1` [Example 225, N-(3-(2-(tert-butyl)-5-(2-((4-(piperazin-1-yl)phenyl)amino)pyrimidin-4-yl)-thiazol-4-yl)-2-fluorophenyl)-6-cyano-indoline-1-sulfonamide], the pIC50 was 6.34.

For the compound `CN(c1ccccc1)S(=O)(=O)Nc1cccc(-c2nc(C(C)(C)C)sc2-c2ccnc(NC3CCN(S(C)(=O)=O)CC3)n2)c1F` [Example 100, N-(3-(2-(tert-butyl)-5-(2-((1-(methylsulfonyl)piperidin-4-yl)amino)-pyrimidin-4-yl)thiazol-4-yl)-2-fluorophenyl)(N-methyl-N-phenyl)-aminosulfonamide], the negative-log IC50 (pIC50) is 5.91.

Regarding `CC(C)(C)c1nc(-c2cccc(NS(=O)(=O)N3CCc4c(C#N)cccc43)c2F)c(-c2ccnc(NC3CCN(S(=O)(=O)N4CCNCC4)CC3)n2)s1` [Example 124, N-(3-(2-(tert-butyl)-5-(2-((1-(piperazin-1-ylsulfonyl)piperidin-4-yl)amino)-pyrimidin-4-yl)thiazol-4-yl)-2-fluoro-phenyl)-4-cyanoindoline-1-sulfonamide], the negative logarithm of the IC50 (pIC50) is 6.82.

As for `CN(c1cccc2c1NCC2)S(=O)(=O)Nc1cccc(-c2nc(C(C)(C)C)sc2-c2ccnc(NC3CCN(S(C)(=O)=O)CC3)n2)c1F` [Example 259, N-(3-(2-(tert-butyl)-5-(2-((1-(methylsulfonyl)-piperidin-4-yl)amino)-pyrimidin-4-yl)thiazol-4-yl)-2-fluoro-phenyl)-(N-methyl-N-indolin-7-yl)-amine-sulfonamide], the pIC50 was 5.69.

On to `CC(C)(C)c1nc(-c2cccc(NS(=O)(=O)N3Cc4cccnc4C3)c2F)c(-c2ccnc(NC3CCN(S(=O)(=O)N4CCNCC4)CC3)n2)s1` [Example 132, N-(3-(2-(tert-butyl)-5-(2-((1-(piperazin-1-ylsulfonyl)piperidin-4-yl)amino)-pyrimidin-4-yl)thiazol-4-yl)-2-fluoro-phenyl)-5,7-dihydro-6H-pyrrolo[3,4-b]-pyridine-6-sulfonamide], for which the negative-log IC50 (pIC50) is 6.51.

Regarding `CC(C)(C)c1nc(-c2cccc(NS(=O)(=O)N3CCc4ccc(C#N)cc43)c2F)c(-c2ccnc(NC3CCN(S(=O)(=O)N4CCNCC4)CC3)n2)s1` [Example 120, N-(3-(2-(tert-butyl)-5-(2-((1-(piperazin-1-ylsulfonyl)piperidin-4-yl)amino)-pyrimidin-4-yl)thiazol-4-yl)-2-fluorophenyl)-6-cyanoindoline-1-sulfonamide], the pIC50 was 7.06.
